Data as given in EP0098615A1, “1-Oxadethiacephalosporin compound and antibacterial agent containing the same” (MEIJI SEIKA KAISHA LTD., priority 1982, dated 1984).
Values after ≈ are worked out from the molar mass of the structure shown. Like-named read-outs stand apart in the source and are kept apart here.

Key:
[1] = test system: Staphylococcus aureus 209P JC-1; test: MIC by serial dilution method on agar plates; format: cell-based; settings: read-out: Minimum inhibitory concentrations (MIC.)
[2] = test system: Escherichia coli NIHJ JC-2; test: MIC by serial dilution method on agar plates; format: cell-based
[3] = test system: Staphylococcus aureus Smith; test: MIC by serial dilution method on agar plates; format: cell-based; settings: read-out: Minimum inhibitory concentrations (MIC.)
Proteus vulgaris GN 76 = test: MIC by serial dilution method on agar plates; format: cell-based
[4] = test system: Salmonella typhimurium LT-2; test: MIC by serial dilution method on agar plates; format: cell-based; settings: Salmonella enterica, read-out: Minimum inhibitory concentrations (MIC.)
Proteus mirabilis GN 79 = test: MIC by serial dilution method on agar plates; format: cell-based
[5] = test system: Klebsiella pneumoniae PCI 602; test: MIC by serial dilution method on agar plates; format: cell-based
Protues rettgeri GN 624 = test: MIC by serial dilution method on agar plates; format: cell-based; settings: read-out: Minimum inhibitory concentrations (MIC.)
[6] = test system: Serratia marcescens No. 2; test: MIC by serial dilution method on agar plates; format: cell-based
Escherichia coli No. 29 = test: Curative effect of oral administration in infected mice (survival); format: in vivo; settings: three mice in each group, i.p. inoculum 3.25 x 10^5 CFU/mouse, 7 days observation
Description: Thus, some tests were made to evaluate the curative effects of the new compound of this invention in therapeutic treatment of bacterial infections when the new compound was orally given to mice (average body weight 20 g) which had been infected with Escherichia coli No. 29. In these tests for therapeutic treatment of the bacterial infection, mice (three mice in each group) were inoculated intraperitoneally with Escherichia coli No. 29 at an inoculum dose of 3.25 x 10^5 CFU/mouse and then immediately treated by oral administration of the test compound. For the subsequent 7 days, the mice were kept under observation and the number of surviving mice was counted.

[7] = Staphylococcus aureus 209P JC-1, serial dilution on agar plates
[8] = NIHJJC2, Escherichia coli NIHJ JC-2, serial dilution on agar plates, read-out: Minimum inhibitory concentrations (MIC.)
[9] = Staphylococcus aureus Smith, serial dilution on agar plates
[10] = GN76, Proteus vulgaris GN 76, serial dilution on agar plates, read-out: Minimum inhibitory concentrations (MIC.)
[11] = Salmonella typhimurium LT-2, serial dilution on agar plates
[12] = GN79, Proteus mirabilis GN 79, serial dilution on agar plates, read-out: Minimum inhibitory concentrations (MIC.)
[13] = PCI602, Klebsiella pneumoniae PCI 602, serial dilution on agar plates, read-out: Minimum inhibitory concentrations (MIC.)
[14] = Protues rettgeri GN 624, serial dilution on agar plates
[15] = Serratia marcescens No. 2, serial dilution on agar plates, read-out: Minimum inhibitory concentrations (MIC.)

Row | MIC [1, 7] [µg/mL] | MIC [2, 8] [µg/mL] | MIC [3, 9] [µg/mL] | MIC (Proteus vulgaris GN 76; [10]) [µg/mL] | MIC [4, 11] [µg/mL] | MIC (Proteus mirabilis GN 79; [12]) [µg/mL] | MIC [5, 13] [µg/mL] | MIC (Protues rettgeri GN 624; [14]) [µg/mL] | MIC [6, 15] [µg/mL] | SMILES | number of surviving mice (Escherichia coli No. 29; 0.1 mg/mouse oral) | number of surviving mice (Escherichia coli No. 29; 1 mg/mouse oral) | number of surviving mice (Escherichia coli No. 29; 5 mg/mouse oral) | number of surviving mice (Escherichia coli No. 29; 10 mg/mouse oral) | further results
1 | 1.56 (≈ 3.92 µM) | 0.78 (≈ 1.96 µM) | 3.13 (≈ 7.86 µM) | 50 (≈ 125 µM) | 0.2 (≈ 0.502 µM) | 1.56 (≈ 3.92 µM) | 0.39 (≈ 0.979 µM) | 1.56 (≈ 3.92 µM) | 0.39 (≈ 0.979 µM) | CSC1=C(C(=O)O)N2C(=O)C(NC(=O)C(C(=O)O)c3ccsc3)C2OC1 (centres unmarked) [Example 4(b), 7-[2-(3-thienyl)-2-carboxyacetamido]-1-oxa-1-dethia-3-methylthio-3-cephem-4-carboxylic acid] |  |  |  |  | 
2 | 0.2 (≈ 0.564 µM) | 6.25 (≈ 17.6 µM) | 0.2 (≈ 0.564 µM) | > 100 | 1.56 (≈ 4.4 µM) | 25 (≈ 70.5 µM) | 1.56 (≈ 4.4 µM) | > 100 | > 100 | CSC1=C(C(=O)O)N2C(=O)C(NC(=O)Cc3cccs3)C2OC1 (centres unmarked) [Example 1(b), 7-(2-thienylacetamido)-1-oxa-1-dethia-3-methylthio-3-cephem-4-carboxylic acid] |  |  |  |  | 
3 | 0.2 (≈ 0.502 µM) | 0.78 (≈ 1.96 µM) | 0.39 (≈ 0.979 µM) | 50 (≈ 125 µM) | 0.78 (≈ 1.96 µM) | 6.25 (≈ 15.7 µM) | 0.78 (≈ 1.96 µM) | 3.13 (≈ 7.86 µM) | 3.13 (≈ 7.86 µM) | CSC1=C(C(=O)O)N2C(=O)C(NC(=O)C(C(=O)O)c3cccs3)C2OC1 (centres unmarked) [Example 3(b), 7-[2-(2-thienyl)-2-carboxyacetamide]-1-oxa-1-dethia-3-methylthio-3-cephem-4-carboxylic acid] |  |  |  |  | 
4 |  |  |  |  |  |  |  |  |  | CO/N=C(\C(=O)NC1C(=O)N2C(C(=O)O)=C(SC)COC12)c1csc(N)n1 (centres unmarked) [Example 6(b), 7-[2-(2-amino-4-thiazolyl)-2-methoxy-iminoacetamido]-1-oxa-1-dethia-3-methyl-thio-3-cephem-4-carboxylic acid tri-fluoroacetate] | 1 | 3 | 3 | 3 | MIC ([1]; Staphylococcus aureus, 209P): 1.56 µg/mL (≈ 3.77 µM); MIC ([2]; Escherichia coli, NIHJJC2, read-out: Minimum inhibitory concentrations (MIC.)): 0.78 µg/mL (≈ 1.89 µM); MIC ([3]; Staphylococcus aureus): 3.13 µg/mL (≈ 7.57 µM); MIC (Proteus vulgaris GN 76; Proteus vulgaris, GN76, read-out: Minimum inhibitory concentrations (MIC.)): > 100 µg/mL; MIC ([4]; TYPHIMURIUM): 0.05 µg/mL (≈ 0.121 µM); MIC (Proteus mirabilis GN 79; Proteus mirabilis, GN79, read-out: Minimum inhibitory concentrations (MIC.)): 0.39 µg/mL (≈ 0.943 µM); MIC ([5]; Klebsiella pneumoniae, PCI602, read-out: Minimum inhibitory concentrations (MIC.)): 0.1 µg/mL (≈ 0.242 µM); MIC (Protues rettgeri GN 624): 3.13 µg/mL (≈ 7.57 µM); MIC ([6]; Serratia marcescens, NO.2, read-out: Minimum inhibitory concentrations (MIC.)): 0.78 µg/mL (≈ 1.89 µM)
5 | 0.05 (≈ 0.141 µM) | 6.25 (≈ 17.6 µM) | 0.1 (≈ 0.282 µM) | > 100 | 1.56 (≈ 4.4 µM) | 25 (≈ 70.5 µM) | 1.56 (≈ 4.4 µM) | > 100 | > 100 | CSC1=C(C(=O)O)N2C(=O)C(NC(=O)Cc3ccsc3)C2OC1 (centres unmarked) [Example 2(b), 7-(3-thienylacetamido)-1-oxa-1-dethia-3-methylthio-3-cephem-4-carboxylic acid] |  |  |  |  | 

Row | SMILES | MIC [1, 7] [µg/mL] | MIC [2, 8] [µg/mL] | MIC [3, 9] [µg/mL] | MIC (Proteus vulgaris GN 76; [10]) [µg/mL] | MIC [4, 11] [µg/mL] | MIC (Proteus mirabilis GN 79; [12]) [µg/mL] | MIC [5, 13] [µg/mL] | MIC (Protues rettgeri GN 624; [14]) [µg/mL] | MIC [6, 15] [µg/mL] | number of surviving mice (Escherichia coli No. 29; 0.1 mg/mouse oral) | number of surviving mice (Escherichia coli No. 29; 1 mg/mouse oral) | number of surviving mice (Escherichia coli No. 29; 5 mg/mouse oral) | number of surviving mice (Escherichia coli No. 29; 10 mg/mouse oral) | further results
6 | COC1=C(C(=O)O)N2C(=O)[C@@H](NC(=O)[C@H](N)C3=CCC=CC3)[C@H]2SC1 [Cefroxadine, reference compound] | 1.56 (≈ 4.27 µM) | 3.13 (≈ 8.57 µM) | 1.56 (≈ 4.27 µM) | > 100 | 6.25 (≈ 17.1 µM) | 50 (≈ 137 µM) | 3.13 (≈ 8.57 µM) | > 100 | 100 (≈ 274 µM) | 0 | 0 | 3 | 3 | 
